According to PubChem BioAssay (NCI):
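Method: 48-hour compound exposure of cells in 96-well plates, five concentrations, linear interpolation of endpoints. At the TGI there is no net growth.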

What was measured:
Experiment in all cases: NCI-60 cell line screen, 48 h
[1] = system: SK-OV-3 ovarian
[2] = system: OVCAR-4 ovarian
[3] = system: HOP-62 NSCLC
[4] = system: RXF 393 renal
[5] = system: K-562 leukemia
[6] = system: IGROV1 ovarian
[7] = system: UACC-257 melanoma
[8] = system: OVCAR-5 ovarian
[9] = system: SF-539 CNS
[10] = system: OVCAR-8 ovarian
[11] = system: MOLT-4 leukemia
[12] = system: HCC-2998 colon
[13] = system: NCI-H460 lung
[14] = system: M14 melanoma
[15] = system: SW-620 colon
[16] = system: CCRF-CEM leukemia
[17] = system: NCI-H226 lung
[18] = system: SR leukemia
[19] = system: SNB-75 CNS
[20] = system: U251 CNS
[21] = system: TK-10 renal
[22] = system: SNB-78 CNS
[23] = system: RPMI-8226 leukemia
[24] = system: UACC-62 melanoma
[25] = system: COLO 205 colon
[26] = system: SK-MEL-28 melanoma
[27] = system: OVCAR-3 ovarian
[28] = system: ACHN renal
[29] = system: MALME-3M melanoma
[30] = system: LXFL 529 NSCLC
[31] = system: DMS 114 small cell lung
[32] = system: HL-60(TB) leukemia
[33] = system: HOP-18 NSCLC
[34] = system: KM20L2 colon
[35] = system: A549 NSCLC
[36] = system: CAKI-1 renal
[37] = system: DMS 273 small cell lung
[38] = system: SF-295 CNS
[39] = system: HCT-116 colon
[40] = system: HOP-92 NSCLC
[41] = system: EKVX NSCLC
[42] = system: LOX IMVI melanoma
[43] = system: KM12 colon
[44] = system: HT29 colon
[45] = system: SN12C renal
[46] = system: NCI-H23 lung
[47] = system: NCI-H522 lung
[48] = system: UO-31 renal
[49] = system: DLD-1 colon
[50] = system: XF 498 CNS
[51] = system: SNB-19 CNS
[52] = system: M19-MEL melanoma
[53] = system: SF-268 CNS
[54] = system: A498 renal
[55] = system: 786-0 renal
[56] = system: SK-MEL-5 melanoma
[57] = system: SK-MEL-2 melanoma

Question: Which TGI [1] does the source give for `O=C(O)C(C(=O)C(=O)C(C(=O)O)c1ccc(Cl)cc1)c1ccc(Cl)cc1` (stereo not drawn) here?
Answer: 18.2 µM

Question: What about the TGI [2] of the same compound?
Answer: 6.96 µM

Question: And the TGI [3]?
Answer: 16.9 µM

Question: What about the TGI [4] of the same compound?
Answer: 8.37 µM

Question: What about the TGI [5] of the same compound?
Answer: 10.7 µM

Question: And the TGI [6]?
Answer: 9.03 µM

Question: And the TGI [7]?
Answer: 11.4 µM

Question: What about the TGI [8] of the same compound?
Answer: 13.6 µM

Question: What about the TGI [9] of the same compound?
Answer: 4.6 µM

Question: And the TGI [10]?
Answer: 6.23 µM

Question: And the TGI [11]?
Answer: 5 µM

Question: What about the TGI [12] of the same compound?
Answer: 14.1 µM

Question: What about the TGI [13] of the same compound?
Answer: 13.7 µM

Question: And the TGI [14]?
Answer: 16.4 µM

Question: And the TGI [15]?
Answer: 13.5 µM

Question: And the TGI [16]?
Answer: 10 µM

Question: And the TGI [17]?
Answer: 16.4 µM

Question: What about the TGI [18] of the same compound?
Answer: 6 µM

Question: What about the TGI [19] of the same compound?
Answer: 8.89 µM

Question: And the TGI [20]?
Answer: 12 µM

Question: What about the TGI [21] of the same compound?
Answer: 12.3 µM

Question: And the TGI [22]?
Answer: 13.9 µM

Question: What about the TGI [23] of the same compound?
Answer: 5.91 µM

Question: And the TGI [24]?
Answer: 3.91 µM

Question: And the TGI [25]?
Answer: 18.8 µM

Question: And the TGI [26]?
Answer: 15.7 µM

Question: What about the TGI [27] of the same compound?
Answer: 10.2 µM

Question: And the TGI [28]?
Answer: 12.8 µM

Question: And the TGI [29]?
Answer: 10.4 µM

Question: What about the TGI [30] of the same compound?
Answer: 10.7 µM

Question: And the TGI [31]?
Answer: 5.64 µM

Question: What about the TGI [32] of the same compound?
Answer: 6.82 µM

Question: What about the TGI [33] of the same compound?
Answer: 18.1 µM

Question: And the TGI [34]?
Answer: 11.3 µM

Question: What about the TGI [35] of the same compound?
Answer: 11.2 µM

Question: What about the TGI [36] of the same compound?
Answer: 13.6 µM

Question: And the TGI [37]?
Answer: 12.9 µM

Question: What about the TGI [38] of the same compound?
Answer: 20.8 µM

Question: What about the TGI [39] of the same compound?
Answer: 12.1 µM

Question: What about the TGI [40] of the same compound?
Answer: 8.89 µM

Question: What about the TGI [41] of the same compound?
Answer: 13.3 µM

Question: And the TGI [42]?
Answer: 8.79 µM

Question: And the TGI [43]?
Answer: 13.4 µM

Question: What about the TGI [44] of the same compound?
Answer: 11.1 µM

Question: And the TGI [45]?
Answer: 10.8 µM

Question: And the TGI [46]?
Answer: 5.6 µM

Question: And the TGI [47]?
Answer: 4.45 µM

Question: And the TGI [48]?
Answer: 15.4 µM

Question: What about the TGI [49] of the same compound?
Answer: 14.1 µM

Question: What about the TGI [50] of the same compound?
Answer: 5.95 µM

Question: And the TGI [51]?
Answer: 14.3 µM

Question: What about the TGI [52] of the same compound?
Answer: 12.5 µM

Question: What about the TGI [53] of the same compound?
Answer: 11.9 µM

Question: What about the TGI [54] of the same compound?
Answer: 16.6 µM

Question: And the TGI [55]?
Answer: 15.7 µM

Question: With `CC(C)N1CCC2(CC1)NNc1ncccc1-n1cccc12` as the compound, how does the TGI [2] read?
Answer: > 100 µM

Question: What about the TGI [3] of the same compound?
Answer: > 100 µM

Question: And the TGI [5]?
Answer: > 100 µM

Question: What about the TGI [56] of the same compound?
Answer: > 100 µM

Question: What about the TGI [7] of the same compound?
Answer: > 100 µM

Question: What about the TGI [8] of the same compound?
Answer: > 100 µM

Question: What about the TGI [9] of the same compound?
Answer: > 100 µM

Question: What about the TGI [10] of the same compound?
Answer: > 100 µM

Question: And the TGI [11]?
Answer: > 100 µM

Question: What about the TGI [12] of the same compound?
Answer: > 100 µM

Question: And the TGI [13]?
Answer: > 100 µM

Question: And the TGI [14]?
Answer: > 100 µM

Question: And the TGI [15]?
Answer: > 100 µM

Question: What about the TGI [16] of the same compound?
Answer: > 100 µM

Question: What about the TGI [17] of the same compound?
Answer: > 100 µM

Question: What about the TGI [19] of the same compound?
Answer: > 100 µM

Question: What about the TGI [20] of the same compound?
Answer: > 100 µM

Question: What about the TGI [21] of the same compound?
Answer: > 100 µM

Question: What about the TGI [22] of the same compound?
Answer: > 100 µM

Question: What about the TGI [23] of the same compound?
Answer: > 100 µM

Question: What about the TGI [25] of the same compound?
Answer: > 100 µM

Question: What about the TGI [26] of the same compound?
Answer: > 100 µM

Question: And the TGI [27]?
Answer: > 100 µM

Question: What about the TGI [28] of the same compound?
Answer: > 100 µM

Question: What about the TGI [57] of the same compound?
Answer: > 100 µM

Question: What about the TGI [29] of the same compound?
Answer: > 100 µM

Question: What about the TGI [31] of the same compound?
Answer: > 100 µM

Question: What about the TGI [32] of the same compound?
Answer: > 100 µM

Question: And the TGI [33]?
Answer: > 100 µM

Question: What about the TGI [35] of the same compound?
Answer: > 100 µM

Question: And the TGI [36]?
Answer: > 100 µM

Question: What about the TGI [37] of the same compound?
Answer: > 100 µM

Question: What about the TGI [38] of the same compound?
Answer: > 100 µM

Question: And the TGI [39]?
Answer: > 100 µM

Question: And the TGI [41]?
Answer: > 100 µM

Question: What about the TGI [42] of the same compound?
Answer: > 100 µM

Question: What about the TGI [43] of the same compound?
Answer: > 100 µM

Question: And the TGI [44]?
Answer: > 100 µM

Question: What about the TGI [45] of the same compound?
Answer: > 100 µM

Question: What about the TGI [46] of the same compound?
Answer: > 100 µM

Question: What about the TGI [47] of the same compound?
Answer: > 100 µM

Question: And the TGI [48]?
Answer: > 100 µM

Question: What about the TGI [49] of the same compound?
Answer: > 100 µM

Question: What about the TGI [50] of the same compound?
Answer: > 100 µM

Question: What about the TGI [51] of the same compound?
Answer: > 100 µM

Question: What about the TGI [52] of the same compound?
Answer: > 100 µM

Question: What about the TGI [53] of the same compound?
Answer: > 100 µM

Question: What about the TGI [55] of the same compound?
Answer: > 100 µM
